Results reported in PMC8598068, “Flagellin lysine methyltransferase FliB catalyzes a [4Fe-4S] mediated methyl transfer reaction” (PLoS Pathogens, 2021).

Legend:
[1] = molecular target: T1, ftFliB (FleBt-FliB) (Salmonella enterica, UniProt Q56106); experiment: biochemical
[2] = molecular target: T1, ftFliB (FleBt-FliB); experiment: UV-vis, EPR, […] Mössbauer, iron and sulfur content; assay type: binding; design: N-terminal His6 and Yersinia enterocolitica FleB residues 54-332 (FleBt) solubility tag kept, fused to FliB; E. coli BL21(DE3); ~76 kDa; about 14-mer; details: anaerobically reconstituted protein; CX4CX3CC motif
[3] = molecular target: the molecule itself; experiment: SEC-MALS; TSK-GEL BioAssist G4SWXL column, buffer A, 0.5 mL/min; MALS with RI and UV 280 nm detectors

Molecule `C[S+](CC[C@H](N)C(=O)O)C[C@H]1O[C@@H](n2cnc3c(N)ncnc32)[C@H](O)[C@@H]1O` (stereo partly drawn) [SAM, S-adenosylmethionine] has a Kd [1] of 10.5 ± 3.41 µM.

In the case of `[S]12[Fe]3[S]4[Fe]1[S]1[Fe]2[S]3[Fe]41` [[4Fe-4S] cluster], the “UV-vis, EPR, 57Fe Mössbauer, iron and sulfur content” value [2] is reported as “indicating the presence of one [4Fe-4S] cluster in FliB”.

B1: FleBt-FliB fusion protein (flagellin lysine methyltransferase FliB fused to the C-terminus of truncated FleB) (enzyme)
chain: MKEITVTEPAFVTRFSCSGSACRDHCCKGWKITLDKTTVKKYLASKDTTIRTIAQDHIILLKKNNSHWGEIKLPSALGNCPYLDEDRLCRVQKTLGAKALSHTCSSFPRAHHTYKNEVRNSLSLACPEVTSRILNDPDAMALSEKTIIQQTFNTAPLFPAQQKLLNLFCLSLINHANSSTEAALYALIKFVMYAQKFAKIDDAALGELEQVYAALLEQLQTGVLAQELMNIAPDSKVKTSLVLQMQDYFRSLPLNRGSVILDHYIQCLLRVLTAEEGVSMEQKVSDIESSLARCLQANEQQKNWAFRNLILYKIWENNFPNQPNVDPLRALYIIVAEYAFIKLLTAASVHERGRIEWDDVTNIVYSFHSRSQHNSEVAKNFHRHIETVRTGDDLSMIHLLT
notes: also called ftFliB; source: E. coli BL21 (DE3), purified (HisTrap HP, SEC); copies: 14
For B1, the “stoichiometry N” value [3] was roughly 14 subunits per oligomer.
